The values that follow come from patent US4740504A, “Antihyperlipidemic amine boranes” (United States Borax & Chemical Corp., priority 1987, dated 1988).

Where two headings read alike, the source gives them in different places.

In one experiment the test system is male CF1 mice. Nature of the experiment: Hypolipidemic activity in CF1 mice, intraperitoneal dosing (serum cholesterol and triglyceride). The class given is in vivo. As to conditions: Mus musculus, ip, male CF1 mice; for response vs control in vivo at 20 mg/kg / response vs control in vivo at 5 mg/kg: Table I; for response vs control in vivo at 20 mg/kg: 20 mg./kg./day i.p.; for response vs control in vivo at 8 mg/kg: Table II, 8 mg./kg./day i.p.; for response vs control in vivo at 5 mg/kg: 5 mg./kg./day i.p. Here is the method: For determining hypolipidemic activity, the compounds were suspended in an aqueous 1% carboxymethylcellulose solution and tested at 5 or 20 mg./kg./day administered intraperitoneally to male CF1 mice (~25 g.). On days 9 and 16 blood was collected by tail vein bleeding and the serum separated by centrifugation for three minutes. Serum cholesterol levels were determined by a modified Liebermann-Burchard reaction. Serum triglyceride levels were also determined at 16 days using a Fisher-Hycel Triglyceride Test Kit.
The test was repeated at a dosage of 8 mg./kg./day.
N-n-Octadecyl-N,N-dimethylamine borane was suspended in an aqueous 1% carboxymethylcellulose solution, homogenized, and administered to CF1 male mice (~25 g.) intraperitoneally for 16 days or Sprague Dawley male rats (~350 g.) orally by an intubation needle for 14 days. On days 9 and 14 or 16, blood was obtained by tail vein bleeding and the serum separated by centrifugation for 3 minutes. The serum cholesterol levels were determined by a modification of the Liebermann-Burchard reaction. Serum was also collected on day 14 or 16 and the triglyceride content was determined by a Fisher-Hycel Triglyceride Test Kit.

The conditions of experiment [1]: dose of 5-20 mg/kg/day; Hall et al., J. Pharm. Sci. 70, 339-341 (1981); cited from earlier work.
Another experiment has as its system mice. Conditions: cited from earlier work.
Experiment [2] concerns the target T1, ATP dependent citrate lyase (Mus musculus, UniProt Q91V92).
T1 construct: from tissue
T1 sequence (Q91V92 1-1091): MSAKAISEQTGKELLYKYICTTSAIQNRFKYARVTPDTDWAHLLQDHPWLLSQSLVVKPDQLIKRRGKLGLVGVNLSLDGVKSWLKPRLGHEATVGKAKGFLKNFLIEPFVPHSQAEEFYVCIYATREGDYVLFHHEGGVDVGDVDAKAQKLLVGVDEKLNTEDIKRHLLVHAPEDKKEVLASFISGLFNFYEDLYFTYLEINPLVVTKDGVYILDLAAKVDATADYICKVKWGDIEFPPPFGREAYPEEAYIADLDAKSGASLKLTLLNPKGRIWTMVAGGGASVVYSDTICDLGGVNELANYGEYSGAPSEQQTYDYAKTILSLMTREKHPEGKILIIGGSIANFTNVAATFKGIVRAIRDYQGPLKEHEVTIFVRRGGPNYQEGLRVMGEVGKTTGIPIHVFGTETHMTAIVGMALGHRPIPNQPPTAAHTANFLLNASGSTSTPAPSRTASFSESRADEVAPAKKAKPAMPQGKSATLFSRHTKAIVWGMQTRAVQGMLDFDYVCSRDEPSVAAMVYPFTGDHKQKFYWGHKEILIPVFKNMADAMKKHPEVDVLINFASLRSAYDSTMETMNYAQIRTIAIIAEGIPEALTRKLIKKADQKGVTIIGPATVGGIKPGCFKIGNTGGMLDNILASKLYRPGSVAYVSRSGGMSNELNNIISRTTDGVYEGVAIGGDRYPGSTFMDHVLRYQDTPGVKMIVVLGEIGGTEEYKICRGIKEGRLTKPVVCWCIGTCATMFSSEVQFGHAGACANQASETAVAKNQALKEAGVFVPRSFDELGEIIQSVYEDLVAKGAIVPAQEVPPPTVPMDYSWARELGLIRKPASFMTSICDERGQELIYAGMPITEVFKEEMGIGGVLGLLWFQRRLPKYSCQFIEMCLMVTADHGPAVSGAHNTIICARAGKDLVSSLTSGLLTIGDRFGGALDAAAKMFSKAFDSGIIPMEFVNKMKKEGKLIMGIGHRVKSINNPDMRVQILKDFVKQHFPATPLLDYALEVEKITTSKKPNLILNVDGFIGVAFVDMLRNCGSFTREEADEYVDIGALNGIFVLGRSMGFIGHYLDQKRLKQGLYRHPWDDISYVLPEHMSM
Conditions: in vivo; Hall et al. 1984; cited from earlier work.

In another experiment the target is T2, acetyl CoA synthetase (Mus musculus, UniProt Q9QXG4).
T2 construct: from tissue
As to conditions: in vivo; Hall et al. 1984; cited from earlier work.

In experiment [3] the test system is phosphatidate phosphohydrolase. As to conditions: in vivo; Hall et al. 1984; cited from earlier work.
[4] abbreviates: 216 h, day 9, read-out: Serum Cholesterol Day 9.
Where [5] appears, read: 384 h, day 16, read-out: Serum Cholesterol Day 16.
The mark [6] stands for this setting: 384 h, day 16, read-out: Serum Triglyceride Day 16.

T2 sequence (Q9QXG4 whole entry): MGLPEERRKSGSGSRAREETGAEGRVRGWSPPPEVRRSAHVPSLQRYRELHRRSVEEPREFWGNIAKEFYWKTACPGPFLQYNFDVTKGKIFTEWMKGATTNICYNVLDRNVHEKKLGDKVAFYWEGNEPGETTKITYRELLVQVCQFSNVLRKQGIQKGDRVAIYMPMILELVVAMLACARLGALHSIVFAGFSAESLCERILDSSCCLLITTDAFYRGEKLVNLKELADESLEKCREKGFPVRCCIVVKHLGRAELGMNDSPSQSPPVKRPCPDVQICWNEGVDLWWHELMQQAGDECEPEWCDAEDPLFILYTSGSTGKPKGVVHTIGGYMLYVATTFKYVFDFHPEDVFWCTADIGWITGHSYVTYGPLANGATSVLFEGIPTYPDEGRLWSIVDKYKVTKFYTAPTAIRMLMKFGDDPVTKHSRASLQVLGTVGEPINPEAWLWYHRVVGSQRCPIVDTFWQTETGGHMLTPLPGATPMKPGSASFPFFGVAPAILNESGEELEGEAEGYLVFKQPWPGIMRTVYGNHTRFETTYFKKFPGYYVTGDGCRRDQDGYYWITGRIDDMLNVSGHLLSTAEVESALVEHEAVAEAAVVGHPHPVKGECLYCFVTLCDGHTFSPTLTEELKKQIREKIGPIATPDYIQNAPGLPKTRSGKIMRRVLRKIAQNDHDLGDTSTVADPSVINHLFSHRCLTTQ

As for `[BH3-][N+](C)(C)CCCCCCCC` [II, N-octyl-N,N-dimethylamine borane], the values for the response vs control in vivo at 20 mg/kg in the experiment with male CF1 mice (setting [4]), with male CF1 mice (setting [5]) and with male CF1 mice (setting [6]) were 66%, 69% and 75%, respectively. In addition, the response vs control in vivo at 8 mg/kg in the experiment with male CF1 mice (setting [4]) is 81%; with male CF1 mice (setting [5]), 73%; in the experiment with male CF1 mice (setting [6]), 74%.

Take `[BH3-][N+](C)(C)CCCCCCCCCCC` [IV, N--undecyl-N,N--dimethylamine borane]: the response vs control in vivo at 5 mg/kg with male CF1 mice (setting [4]) amounted to 68%; with male CF1 mice (setting [5]), 63%; in the experiment with male CF1 mice (setting [6]), 82%. For the same compound, the response vs control in vivo at 8 mg/kg in the experiment on male CF1 mice (setting [4]) is 82%; in the experiment on male CF1 mice (setting [5]) it was 68%; in the experiment on male CF1 mice (setting [6]), 75%.

Regarding `[BH3-][N+](C)(C)CCCCCCCCCCCC` [IX, N--dodecyl-N,N--dimethylamine borane], the response vs control in vivo at 20 mg/kg with male CF1 mice (setting [4]) turned out to be 103%; with male CF1 mice (setting [5]) it was 97%; with male CF1 mice (setting [6]), 90%. Moreover, the response vs control in vivo at 8 mg/kg in the experiment on male CF1 mice (setting [4]) is 75%; in the experiment with male CF1 mice (setting [5]) it was 74%; with male CF1 mice (setting [6]) it was 94%.

`[BH3-][N+](C)(C)CCCCCCCCCCCCC` [V, N--tridecyl-N,N--dimethylamine borane]: the response vs control in vivo at 20 mg/kg amounted to 88% in the experiment with male CF1 mice (setting [4]), 65% in the experiment with male CF1 mice (setting [5]) and 57% in the experiment on male CF1 mice (setting [6]). The figures for the response vs control in vivo at 8 mg/kg in the experiment on male CF1 mice (setting [4]), with male CF1 mice (setting [5]) and in the experiment with male CF1 mice (setting [6]) were 86%, 84% and 76%, respectively.

`[BH3-][N+](C)(C)CCCCCCCCCCCCCCC` [VI, N--pentadecyl-N,N--dimethylamine borane]: the response vs control in vivo at 20 mg/kg is 86% in the experiment with male CF1 mice (setting [4]), 64% in the experiment on male CF1 mice (setting [5]) and 70% in the experiment on male CF1 mice (setting [6]). The response vs control in vivo at 8 mg/kg is 81% with male CF1 mice (setting [4]), 66% in the experiment on male CF1 mice (setting [5]) and 77% in the experiment on male CF1 mice (setting [6]).

`[BH3-][N+](C)(C)CCCCCCCCCCCCCC` [VII, N--tetradecyl-N,N--dimethylamine borane]: the response vs control in vivo at 20 mg/kg is 79% with male CF1 mice (setting [4]), 60% with male CF1 mice (setting [5]) and 102% in the experiment with male CF1 mice (setting [6]). The response vs control in vivo at 8 mg/kg worked out at 80% in the experiment on male CF1 mice (setting [4]), 67% in the experiment with male CF1 mice (setting [5]) and 80% in the experiment with male CF1 mice (setting [6]).

`[BH3-][N+](C)(C)CCCCCCCCCCCCCCCC` [VIII, N--hexadecyl-N,N--dimethylamine borane]: the response vs control in vivo at 20 mg/kg with male CF1 mice (setting [4]) is 74%; in the experiment with male CF1 mice (setting [5]) it was 62%; with male CF1 mice (setting [6]), 72%. Further, the response vs control in vivo at 8 mg/kg turned out to be 79% in the experiment on male CF1 mice (setting [4]), 59% in the experiment with male CF1 mice (setting [5]) and 41% in the experiment with male CF1 mice (setting [6]).

Regarding `[BH3-][N+](C)(C)CCCCCC` [X, N-- -n-hexyl-N,N--dimethylamine borane], the values for the response vs control in vivo at 20 mg/kg with male CF1 mice (setting [4]), in the experiment with male CF1 mice (setting [5]) and with male CF1 mice (setting [6]) were 66%, 48% and 71%, respectively. Moreover, the figures for the response vs control in vivo at 8 mg/kg in the experiment on male CF1 mice (setting [4]), with male CF1 mice (setting [5]) and in the experiment on male CF1 mice (setting [6]) were 73%, 69% and 80%, respectively.

With `[BH3-][N+](C)(C)CCCC` [XI, N-- -n-butyl-N,N--dimethylamine borane], the values for the response vs control in vivo at 20 mg/kg in the experiment on male CF1 mice (setting [4]), in the experiment on male CF1 mice (setting [5]) and in the experiment on male CF1 mice (setting [6]) were 72%, 62% and 68%, respectively. Further, the results for the response vs control in vivo at 8 mg/kg in the experiment on male CF1 mice (setting [4]), in the experiment with male CF1 mice (setting [5]) and in the experiment with male CF1 mice (setting [6]) were 88%, 64% and 72%, respectively.

As to `[BH3-][N+](C)(C)CCCCCCCCCC` [XII, N--decyl-N,N--dimethylamine borane], the response vs control in vivo at 20 mg/kg with male CF1 mice (setting [4]) amounted to 51%; with male CF1 mice (setting [5]), 46%; with male CF1 mice (setting [6]) it was 76%. The response vs control in vivo at 8 mg/kg in the experiment on male CF1 mice (setting [4]) is 77%; in the experiment with male CF1 mice (setting [5]), 77%; with male CF1 mice (setting [6]), 79%.

As for `[BH3-][N+](C)(C)Cc1ccccc1` [XIII, N--benzyl-N,N--dimethylamine borane], the response vs control in vivo at 20 mg/kg in the experiment with male CF1 mice (setting [4]) came to 95%; with male CF1 mice (setting [5]), 71%; in the experiment on male CF1 mice (setting [6]), 60%. Further, the response vs control in vivo at 8 mg/kg is 73% in the experiment with male CF1 mice (setting [4]), 65% in the experiment on male CF1 mice (setting [5]) and 53% with male CF1 mice (setting [6]).

For the compound `C[N+](C)(C)[BH2-]C(=O)O` [trimethylamine carboxyborane], the “hypolipidemic activity (printed: hyperlipidemic)” value in experiment [1] is “potent hyperlipidemic activity”.

Regarding “tetrakis-μ-(trimethylamine-borane carboxyato)-bis(trimethylamine-carboxyborane)-dicopper (II)”, the hypolipidemic activity entry with mice (2.5 mg/kg in mice, Hall et al., J. Pharm. Sci. 73, 973-977 (1984)) was “potent hypolipidemic agent”. Besides, the “cholesterol excretion from the body” value in the experiment on mice (Hall et al. 1984) is given as “accelerate cholesterol excretion”. In addition, the “effect on ATP dependent citrate lyase” value in experiment [2] is listed as “lower”. Besides, the “effect on acetyl CoA synthetase” value on acetyl CoA synthetase is on record as “lower”. The “effect on phosphatidate phosphohydrolase” value in experiment [3] is recorded as “lower”.
